Read-outs that look alike come from different tables or passages of the source.
Columns and labels:
Aurora B = Aurora B (Homo sapiens, UniProt Q96GD4); assay: Aurora B inhibition assay (Z-Lyte); type: biochemical; conditions: read-out: IC50 Ranges Aurora B
Method: Aurora B inhibition was determined using the Z-Lyte assay kit from Invitrogen. […] The % inhibition values were determined according to the manufacturer's directions and IC50 values were obtained using a non-linear 4 point logistic curve fit (XLfit4, IDBS)

human PLK4 = molecular target: T1, human PLK4 (Homo sapiens, UniProt O00444); assay: PLK4 inhibition assay (indirect ELISA); type: biochemical
T1 construct: amino terminal GST fusion of residues 1-391 of human PLK4; made in house; host or cells: E. coli
T1 sequence (O00444 1-391): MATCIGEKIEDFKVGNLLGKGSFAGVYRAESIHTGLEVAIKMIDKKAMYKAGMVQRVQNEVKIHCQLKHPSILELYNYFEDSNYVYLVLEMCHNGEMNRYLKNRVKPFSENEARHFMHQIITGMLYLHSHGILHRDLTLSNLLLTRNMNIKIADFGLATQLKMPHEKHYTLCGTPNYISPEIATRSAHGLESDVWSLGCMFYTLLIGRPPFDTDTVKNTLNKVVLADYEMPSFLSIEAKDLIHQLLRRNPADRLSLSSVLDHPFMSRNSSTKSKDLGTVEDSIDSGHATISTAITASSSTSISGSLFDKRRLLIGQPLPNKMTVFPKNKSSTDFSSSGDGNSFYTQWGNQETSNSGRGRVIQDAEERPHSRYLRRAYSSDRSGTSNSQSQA
Method: PLK4 activity was measured using an indirect ELISA detection system. […] The colourimetric reaction was allowed to continue for 5 minutes, followed by addition of stop solution (0.5 N sulphuric acid), and quantified by detection at 450 nm with either a monochromatic or filter based plate reader (Molecular Devices M5 or Beckman DTX880, respectively).
Compounds were pre-incubated in the presence of enzyme for 15 minutes prior to addition of ATP and the activity remaining quantified using the above described activity assay. […] The IC50 value was determined using a non-linear 4 point logistic curve fit (XLfit4, IDBS) with the formula; (A+(B/(1+((x/C)^D)))), where A=background value, B=range, C=inflection point, D=curve fit parameter.

Chain of Aurora B (Q96GD4 whole entry): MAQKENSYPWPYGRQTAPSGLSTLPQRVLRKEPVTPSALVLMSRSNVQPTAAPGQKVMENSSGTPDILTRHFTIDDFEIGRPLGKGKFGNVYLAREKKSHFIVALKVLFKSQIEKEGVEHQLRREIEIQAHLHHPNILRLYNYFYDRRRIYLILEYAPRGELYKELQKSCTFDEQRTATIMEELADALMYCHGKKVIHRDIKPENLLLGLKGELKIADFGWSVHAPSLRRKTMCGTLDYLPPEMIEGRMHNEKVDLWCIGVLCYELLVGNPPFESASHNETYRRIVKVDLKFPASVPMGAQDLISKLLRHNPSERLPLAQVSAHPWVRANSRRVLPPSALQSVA

CN1CCN(c2ccc(-c3n[nH]c4cc([C@@H]5C[C@@]56C(=O)Nc5ccc(OC(F)F)cc56)ccc34)cn2)CC1 (relative stereo) [Example A209, (1R*,2S*)-5′-(difluoromethoxy)-2-(3-(6-(4-methylpiperazine-1-yl)pyridine-3-yl)-1H-indazol-6-yl)spiro[cyclopropane-1,3′-indolin]-2′-one 2,2,2-trifluoro acetate]
IC50 (Aurora B): < 100 nM
IC50 (human PLK4; read-out: IC50 Ranges PLK4): < 100 nM

COc1ccc2c(c1)[C@]1(C[C@H]1c1ccc3c(-c4ccc(N5CCN(C)CC5)cc4)n[nH]c3c1)C(=O)N2C (relative stereo) [Example A100, (1R*,2S*)-5′-methoxy-1′-methyl-2-(3-(4-(4-methylpiperazin-1-yl)phenyl)-1H-indazol-6-yl)spiro[cyclopropane-1,3′-indolin]-2′-one 2,2,2-trifluoroacetate]
IC50 (Aurora B): < 100 nM
IC50 (human PLK4; read-out: IC50 Ranges PLK4): < 100 nM

O=C1Nc2ccc(F)cc2[C@]12C[C@H]2c1ccc2c(I)n[nH]c2c1 (relative stereo) [Example A40, (1R*,2S*)-5′-fluoro-2-(3-iodo-1H-indazol-6-yl)spiro[cyclopropane-1,3′-indolin]-2′-one]
IC50 (Aurora B): 100 to 1000 nM
IC50 (human PLK4; read-out: IC50 Ranges PLK4): 100 to 1000 nM

CC(C)CCN1C(=O)[C@@]2(C[C@H]2c2ccc3c(/C=C/c4ccc(CN(C)C)cc4)n[nH]c3c2)c2ccccc21 (relative stereo) [Example A176, (1R*,2S*)-(E)-2-(3-(4-((dimethylamino)methyl)styryl)-1H-indazol-6-yl)-1′-isopentylspiro[cyclopropane-1,3′-indolin]-2′-one]
IC50 (Aurora B): 100 to 1000 nM
IC50 (human PLK4; read-out: IC50 Ranges PLK4): < 100 nM

O=C1Nc2ccc(F)cc2[C@]12C[C@H]2c1ccc2c(/C=C/c3ccc(N4CCOCC4)nc3)n[nH]c2c1 (relative stereo) [Example A207, (1R*,2S*)-5′-fluoro-2-(3-((E)-2-(6-morpholinopyridin-3-yl)vinyl)-1H-indazol-6-yl)spiro[cyclopropane-1,3′-indolin]-2′-one 2,2,2-trifluoroacetate]
IC50 (Aurora B): < 100 nM
IC50 (human PLK4; read-out: IC50 Ranges PLK4): < 100 nM

CCN1Cc2ccc(/C=C/c3n[nH]c4cc([C@@H]5C[C@@]56C(=O)Nc5ccc(OC)cc56)ccc34)cc2C1 (relative stereo) [Example A190, (1R*,2S*)-2-(3-((E)-2-(2-ethylisoindolin-5-yl)vinyl)-1H-indazol-6-yl)-5′-methoxyspiro[cyclopropane-1,3′-indolin]-2′-one 2,2,2-trifluoroacetate]
IC50 (Aurora B): < 100 nM
IC50 (human PLK4; read-out: IC50 Ranges PLK4): < 100 nM

COc1cc2c(cc1OC)[C@]1(C[C@H]1c1ccc3c(/C=C/c4ccc(CN(C)C)cc4)n[nH]c3c1)C(=O)N2 (relative stereo) [Example A168, (1R*,2S*)-(E)-2-(3-(4-((dimethylamino)methyl)styryl)-1H-indazol-6-yl)-5′,6′-dimethoxyspiro[cyclopropane-1,3′-indolin]-2′-one 2,2,2-trifluoroacetate]
IC50 (Aurora B): < 100 nM
IC50 (human PLK4; read-out: IC50 Ranges PLK4): < 100 nM

CN1CCN(C(=O)c2ccc(-c3n[nH]c4cc([C@@H]5C[C@@]56C(=O)Nc5ccccc56)ccc34)cc2)CC1 (relative stereo) [Example A156, (1R*,2S*)-2-(3-(4-(4-methylpiperazine-1-carbonyl)phenyl)-1H-indazol-6-yl)spiro[cyclopropane-1,3′-indolin]-2′-one 2,2,2-trifluoroacetate]
IC50 (Aurora B): 100 to 1000 nM
IC50 (human PLK4; read-out: IC50 Ranges PLK4): < 100 nM

COc1ccc2c(c1)[C@]1(CC1c1ccc3c(/C=C/c4cc(F)c(CN(C)C)c(F)c4)n[nH]c3c1)C(=O)N2 (stereo in doubt) [Example A215, (1R*,2S*)-(E)-2-(3-(4-((dimethylamino)methyl)-3,5-difluorostyryl)-1H-indazol-6-yl)-5′-methoxyspiro[cyclopropane-1,3′-indolin]-2′-one 2,2,2-trifluoro acetate]
IC50 (Aurora B): < 100 nM
IC50 (human PLK4; read-out: IC50 Ranges PLK4): < 100 nM

CN1CCN(Cc2ccc(-c3n[nH]c4cc([C@@H]5C[C@@]56C(=O)Nc5ccccc56)ccc34)cc2)CC1 (relative stereo) [Example A155, (1R*,2S*)-2-(3-(4-((4-methylpiperazin-1-yl)methyl)phenyl)-1H-indazol-6-yl)spiro[cyclopropane-1,3′-indolin]-2′-one bis-2,2,2-trifluoroacetate]
IC50 (Aurora B): 100 to 1000 nM
IC50 (human PLK4; read-out: IC50 Ranges PLK4): < 100 nM

COc1ccc2c(c1)[C@]1(C[C@H]1c1ccc3c(-c4ccc(N5CCC(N(C)C)CC5)cc4)n[nH]c3c1)C(=O)N2 (relative stereo) [Example A119, (1R*,2S*)-2-(3-(4-(4-(dimethylamino)piperidin-1-yl)phenyl)-1H-indazol-6-yl)-5′-methoxy spiro[cyclopropane-1,3′-indolin]-2′-one 2,2,2-trifluoroacetate]
IC50 (Aurora B): < 100 nM
IC50 (human PLK4; read-out: IC50 Ranges PLK4): < 100 nM

COc1ccc2c(c1)[C@]1(C[C@H]1c1ccc3c(C#Cc4ccc(CN5CCN(C)CC5)cc4)n[nH]c3c1)C(=O)N2 (relative stereo) [Example A145, (1R*,2S*)-5′-methoxy-2-(3-((4-((4-methylpiperazin-1-yl)methyl)phenyl)ethynyl)-1H-indazol-6-yl)spiro[cyclopropane-1,3′-indolin]-2′-one bis(2,2,2-trifluoroacetate)]
IC50 (Aurora B): 100 to 1000 nM
IC50 (human PLK4; read-out: IC50 Ranges PLK4): < 100 nM

O=C1Nc2ncc(Br)cc2[C@]12C[C@H]2c1ccc2cn[nH]c2c1 (racemic) [Example A12, (1R*,2S*)-5′-bromo-2-(1H-indazol-6-yl)spiro[cyclopropane-1,3′-pyrrolo[2,3-b]pyridin]-2′(1′H)-one]
IC50 (human PLK4; read-out: IC50 Ranges PLK4): 100 to 1000 nM

COc1ccc2c(c1)[C@]1(C[C@@H]1c1ccc3c(-c4ccc(N5CCN(C)CC5)nc4)n[nH]c3c1)C(=O)N2 (relative stereo) [Example A17, (1R*,2R*)-5′-Methoxy-2-(3-(6-(4-methylpiperazin-1-yl)pyridin-3-yl)-1H-indazol-6-yl)spiro[cyclopropane-1,3′-indolin]-2′-one]
IC50 (Aurora B): 100 to 1000 nM
IC50 (human PLK4): < 100 nM

COc1ccc2c(c1)[C@]1(C[C@H]1c1ccc3c(C#Cc4ccc(C=O)cc4)n[nH]c3c1)C(=O)N2 (relative stereo) [Example A137, 4-((6-((1R*,2S*)-5′-methoxy-2′-oxospiro[cyclopropane-1,3′-indoline]-2-yl)-1H-indazol-3-yl)ethynyl)benzaldehyde]
IC50 (Aurora B): < 100 nM
IC50 (human PLK4; read-out: IC50 Ranges PLK4): < 100 nM

CN1CCN(c2ccc(-c3n[nH]c4cc([C@@H]5C[C@@]56C(=O)Nc5ccc(F)cc56)ccc34)cn2)CC1 (relative stereo) [Example A210, (1R*,2S*)-5′-fluoro-2-(3-(6-(4-methylpiperazine-1-yl)pyridine-3-yl)-1H-indazol-6-yl)-spiro[cyclopropane-1,3′-indolin]-2′-one]
IC50 (Aurora B): < 100 nM

COc1ccc2c(c1)[C@]1(C[C@H]1c1ccc3c(-c4ccc(N5CCC(O)CC5)cc4)n[nH]c3c1)C(=O)N2 (relative stereo) [Example A118, (1R*,2S*)-2-(3-(4-(4-hydroxypiperidin-1-yl)phenyl)-1H-indazol-6-yl)-5′-methoxyspiro[cyclopropane-1,3′-indolin]-2′-one 2,2,2-trifluoroacetate]
IC50 (human PLK4; read-out: IC50 Ranges PLK4): < 100 nM

O=C1Nc2ccccc2[C@]12C[C@H]2c1ccc2c(-c3cccc(CN4CCOCC4)c3)n[nH]c2c1 (relative stereo) [Example A153, (1R*,2S*)-2-(3-(3-(morpholinomethyl)phenyl)-1H-indazol-6-yl)spiro [cyclopropane-1,3′-indolin]-2′-one 2,2,2-trifluoroacetate]
IC50 (human PLK4; read-out: IC50 Ranges PLK4): 100 to 1000 nM
